Test results from US5153352A, “Process for preparation of intermediates of carbocyclic nucleoside analogs” (priority 1990, dated 1992).
In brackets after ≈: the same amount, converted by molar mass. Several values for one entry are separate records, joined by “and”; a condition that tells them apart may be missing. Identical values can stand only once.

What was measured:
[1] = test system: Herpes simplex type 1 (HSV-1) strain E-377; assay: CPE-inhibition assay, HSV-1 strain E-377 in Vero cells; conditions: for TI (Therapeutic Index, MTC/ID50) / VR (Virus Rating): HSV-1 (E-377), Vero; for EC50: Human alphaherpesvirus 1, Vero, read-out: ID50 (minimum drug concentration that inhibited the CPE by 50%), HSV-1 (E-377), Vero; for VR (Virus Rating): >1.0 definite, 0.5-0.9 marginal to moderate, <0.5 no significant activity
Vero cells = assay: drug cytotoxicity in Vero cells (CPE-inhibition assay); conditions: Vero
[2] = as above; conditions: monkey, vero cells, MTC (minimum drug concentration causing any cytotoxicity), Vero
[3] = test system: Herpes simplex type 2 (HSV-2) strain MS; assay: CPE-inhibition assay, HSV-2 strain MS in Vero cells; conditions: for TI (Therapeutic Index, MTC/ID50) / VR (Virus Rating): HSV-2 (MS), Vero; for EC50: Human alphaherpesvirus 2, Vero, read-out: ID50 (minimum drug concentration that inhibited the CPE by 50%), HSV-2 (MS), Vero; for VR (Virus Rating): >1.0 definite, 0.5-0.9 marginal to moderate, <0.5 no significant activity
[4] = compound cytotoxicity in ATH8 cells (HIV CPE inhibition assay); type: cell-based; conditions: human, read-out: MTC
Description: (§1) The ATH8 human T-cell line expresses high levels of the CD4 surface antigen and is quite sensitive to the cytopathogenic effect (CPE) of HIV. The cells were propagated in RPMI 1640 medium supplemented with 4mM glutamine, 15% heat-inactivated fetal bovine serum (Biocell), antibiotics (50 units of penicillin and […] of streptomycin per ml), and 50 units of recombinant-derived human interleukin-2 (ala-125; AMGen Biologicals) per ml.
ATH8 cells were used as the primary target in the HIV induced CPE inhibition assay. Cells were treated with polybrene (2 ug/ml in growth medium) for 30 minutes at 37° C., then collected by gentle centrifugation (40×g for 15 minutes at room temperature) and resuspended in clarified (8000×g for 15 minutes at 4° C.) supernate freshly harvested from 48 hours post passage H9/HTL IIIB cells. Following a 60-minute adsorption period at 37° C., the cells were dispensed into the U-bottom wells of 96-well trays (1×10^4 cells in 0.1 ml per well). […] Test compounds were evaluated at seven half-log dilutions ranging from 100 uq/ml to 0.1 uq/ml. […]
(§2) Between 7 and 10 days post infection, all wells were visually monitored for the degree of CPE inhibition as reflected by cell pellet size, and aliquots were taken from selected wells for determination of cell number and viability (based on trypan blue dye exclusion).

[5] = test system: Human Immunodeficiency Virus (HIV); assay: HIV CPE inhibition assay in ATH8 cells; type: cell-based
Description: as §1
The clone H9 cell line is another CD4^+ human T-cell line which is permissive for HIV replication but largely resistant to virus induced CPE. H9 cells productively infected with the HTLV IIIB strain of HIV served as the source of infectious virus. These cells were propagated in RPMI 1640 medium supplemented with glutamine and antibiotics as described above, and with 20% heat-inactivated fetal bovine serum. Freshly harvested, undiluted culture supernatant from the H9/HTLV-IIIB producer cells was used for infectious virus inoculum.
The screening of compounds for antiviral activity was performed using a modification of the CPE inhibition assay originally developed by Broder and co workers. This assay is based on the ability of uninfected ATH8 cells to grow and form a pellet at the bottom of a culture tube. Starting about 4 days after HIV addition, infected ATH8 cells begin to die and the pellet starts to break up. By day 10 a clear differential is observable in the size of the cell pellet in uninfected control wells versus infected control wells. The protective effect of test compounds can be assessed by adding them at varying concentrations to the cultured cells at the time of virus infection, then monitoring the status of the cell pellet.
ATH8 cells were used as the primary target in the HIV induced CPE inhibition assay. Cells were treated with polybrene (2 ug/ml in growth medium) for 30 minutes at 37° C., then collected by gentle centrifugation (40×g for 15 minutes at room temperature) and resuspended in clarified (8000×g for 15 minutes at 4° C.) supernate freshly harvested from 48 hours post passage H9/HTL IIIB cells. Following a 60-minute adsorption period at 37° C., the cells were dispensed into the U-bottom wells of 96-well trays (1×10^4 cells in 0.1 ml per well). An equal volume (0.1 ml) of supplemented RPMI 1640 medium containing test compound and twice the normal concentration of interleukin-2 was then added to each well. Test compounds were evaluated at seven half-log dilutions ranging from 100 uq/ml to 0.1 uq/ml. […]
as §2

[6] = cytotoxicity in ATH8 cells (method of Mitsuya and Broder); type: cell-based; conditions: human, HIV-1 experiment
Text: The method of Mitsuya and Broder (AIDS: Modern Concepts and Therapeutic Challenges; Broder, S. ED.; Marcel Dekker, Inc.; New York, 1987; Chapter 18) was used to determine the in vitro anti-HIV-1 and anti-HIV-2 activity in ATH8 cells of some compounds of the invention. […]

[7] = test system: Human Immunodeficiency Virus (HIV-1); assay: anti-HIV-1 protection of ATH8 cells (method of Mitsuya and Broder); type: cell-based; conditions: Human immunodeficiency virus 1, ATH-8, HIV-1, ATH8 cells, read-out: Protective Effect
Text: The method of Mitsuya and Broder (AIDS: Modern Concepts and Therapeutic Challenges; Broder, S. ED.; Marcel Dekker, Inc.; New York, 1987; Chapter 18) was used to determine the in vitro anti-HIV-1 and anti-HIV-2 activity in ATH8 cells of some compounds of the invention. The results of the test are expressed as the percentage of ATH8 cells that were protected from the cytopathogenic effects of HIV at various concentrations of the compound of the invention.

HSV-1(E-377) = assay: plaque reduction, HSV-1(E-377) in Vero cells; type: cell-based, Herpes simplex virus type 1; conditions: Human alphaherpesvirus 1, plaque reduction 50%, read-out: MIC50
Description: (§3) After the adsorption period, the infected cell monolayers were treated in duplicate with serial dilutions of the test compound. Duplicate cell controls containing medium alone and virus controls containing medium and virus were run simultaneously with the test compound. […] Plaques visible to the unaided eye were counted and the mean number of plaques in the duplicate wells for each compound concentration tested and for the untreated, virus infected controls were determined.

HSV-2 = assay: plaque reduction, HSV-2 in Vero cells; type: cell-based, Herpes simplex virus type 2; conditions: Human alphaherpesvirus 2; HSV-2, Vero, plaque reduction 50%; read-out: MIC50
Description: as §3

HSV-1(123) = assay: plaque reduction, HSV-1(123) in Vero cells; type: cell-based, Herpes simplex virus type 1; conditions: Human alphaherpesvirus 1, plaque reduction 50%, read-out: MIC50
Description: as §3

[8] = test system: Human Cytomegalovirus (HCMV); assay: HCMV virus yield reduction assay in MRC5 cells; type: cell-based, Human cytomegalovirus (strain AD169)
Description: (§4) Human diploid embryonic lung (MRC5) cells were grown in 35 mm wells of 6-well tissue culture plates. Subconfluent cell monolayers were rinsed with phosphate buffered saline (PBS) and were exposed to 0.5 ml/well of HCMV (strain AD169) suspension for 1.5 hours at 37° C. The virus suspension was diluted in MEM+2% fetal bovine serum (FBS) to yield a multiplicity of infection (MOI) of approximately 0.1 plaque forming units (PFU)/cell. Following the virus adsorption period, the inocula were removed and infected cell layers were rinsed with PBS. Aliquots (2.0 ml) of each test drug concentration (dissolved in MEM supplemented with 2% FBS) were dispensed into triplicate cell cultures: two virus infected cultures and one uninfected cytotoxicity control culture (exposed to medium without virus for 1.5 hours). Untreated virus infected control cultures and untreated, uninfected cell control cultures were fed with medium alone.
(§5) All cell culture fluids were replaced with fresh drug and medium 48 hours postinfection (p.i.).
On Day 6 p.i., the cell layers were examined microscopically for cytopathogenic effect (CPE) and drug cytotoxicity. The test and virus control cultures were then harvested by subjecting the cell layers to one cycle of freeze-thawing.
The harvested test and virus control samples were thawed and the infectious virus yield was determined by plaque assay in MRC5 cells grown in 12-well cluster plates. Inhibition of HCMV replication by each test compound was determined by comparing the progeny virus yields in the drug-treated cultures with the progeny virus yield in the untreated, virus infected control cultures.

A549: Lung carcinoma = assay: cytotoxic activity against cultured tumor cells, A549; type: cell-based; conditions: Homo sapiens, 72 h; A549, 3 days, MTT
[9] = test system: P388D1: Lymphocytic Leukemia; assay: cytotoxic activity against cultured tumor cells, P388-D1; type: cell-based; conditions: Mus musculus, P388D1, 72 h; P388-D1, 3 days, MTT
[10] = MTT cytotoxicity assay in MRC5 cells; type: cell-based; conditions: human
Description: as §4, §5
Drug cytotoxicity was determined quantitatively by a method based on the reduction of the tetrazolium salt, 3-(4,5-dimethyl-thiazol-2-yl)-2,5-diphenyl tetrazolium bromide (MTT) by mitochondrial enzymes of viable host cells to MTT formazan (T. Mosmann, 1983). Drug cytotoxicity controls and cell controls were treated with MTT (dissolved in culture medium) followed by 20% SDS (in 0.02 N HCl) to dissolve the crystals of MTT formazan. The blue color of the MTT formazan was measured spectrophotometrically at 570 nm. Drug cytotoxicity was determined by comparing the absorbance (O.D.) of each drug cytotoxicity control with the mean O.D. of the cell control cultures and expressed as percent of control.

[11] = test system: HCT8: Adenocarcinoma, ileocecal; assay: cytotoxic activity against cultured tumor cells, HCT-8; type: cell-based; conditions: Homo sapiens, 72 h; HCT-8, 3 days, MTT

## Nc1nc(Cl)c2ncn(C3CC(CO)C3CO)c2n1 (stereo not drawn) [Example 1H, 3-(2'-Amino-6'-chloro-9'H-purin-9'-yl)-1,2-bis(hydroxymethyl)cyclobutane]
[1]; listed as 1.5H
  TI (Therapeutic Index, MTC/ID50): 3.9 and 3.6
[1]
  EC50: 83 µg/mL (≈ 293 µM)
Vero cells; HSV-1 (E-377) experiment
  MTC (minimum drug concentration causing any cytotoxicity): 320 µg/mL
Vero cells; HSV-2 (MS) experiment
  MTC (minimum drug concentration causing any cytotoxicity): 320 µg/mL
[2]; HSV-1 (E-377) experiment
  MCC: 320 µg/mL
[2]; HSV-2 (MS) experiment
  MCC: 320 µg/mL
[3]; listed as 1.5H
  TI (Therapeutic Index, MTC/ID50): 1.8 and 1.5
[3]
  EC50: 179 µg/mL (≈ 631 µM)

## OCC1CC(n2cnc3c(Cl)ncnc32)C1CO (stereo not drawn) [Example 4B, 3-(6'-chloro-9'H-purin-9'-yl)-1,2-bis(hydroxymethyl)cyclobutane]
[4]
  MCC: 10 µg/mL
[5]
  VR: 1.1

## Nc1nc(N)c2ncn(C3CC(CO)C3CO)c2n1 (stereo not drawn) [Example 6, 3-(2',6'-Diamino 9'H-purin-9'-yl)-1,2-bis(hydroxymethyl)cyclobutane]
[1]
  TI (Therapeutic Index, MTC/ID50): 10.1
  VR (Virus Rating): 2.4
  EC50: 31.7 µg/mL (≈ 120 µM)
[6]; 1 uM
  cytotoxicity at 1 µM: 0%
[6]; 10 uM
  cytotoxicity at 10 µM: 4%
[6]; 100 uM
  cytotoxicity at 100 µM: 32%
[6]; 500 uM
  cytotoxicity at 500 µM: 38%
[2]; HSV-1 (E-377) experiment
  MCC: 320 µg/mL
[2]; HSV-2 (MS) experiment
  MCC: 320 µg/mL
[7]; 1 uM
  inhibition at 1 µM: 21%
[7]; 10 uM
  inhibition at 10 µM: 48%
[7]; 100 uM
  inhibition at 100 µM: 46%
[7]; 500 uM
  inhibition at 500 µM: 57%
[3]
  TI (Therapeutic Index, MTC/ID50): 4.5
  VR (Virus Rating): 1.6
  EC50: 71.8 µg/mL (≈ 272 µM)

## Nc1nc2c(ncn2C2CC(CO)C2O)c(=O)[nH]1 (stereo not drawn) [Example 42P, 9-(2'-hydroxy-3'-hydroxymethyl-1'-cyclobutyl)guanine]
HSV-1(E-377)
  EC50: 1 µg/mL (≈ 3.98 µM)
HSV-2
  EC50: 1 µg/mL (≈ 3.98 µM)
HSV-1(123)
  EC50: 3 µg/mL (≈ 11.9 µM)

## OCC1CC(n2ccc3c(Cl)ncnc32)C1CO (stereo not drawn) [Example 67B, 4-Chloro-7-(2',3'-bis(hydroxymethyl)cyclobutyl)-7H-pyrrolo[2,3-d]pyrimidine]
[8]; 3.2 ug/ml
  HCMV yield: 4.9 log10 PFU/ml
[8]; 10 ug/ml
  HCMV yield: 4.0 log10 PFU/ml
[8]; 32 ug/ml
  HCMV yield: 3.1 log10 PFU/ml
[8]; Human betaherpesvirus 5, 144 h, 3.2 ug/ml
  log reduction at 3.2 µg/mL: 0.4
[8]; Human betaherpesvirus 5, 144 h, 10 ug/ml
  log reduction at 10 µg/mL: 1.3
[8]; Human betaherpesvirus 5, 144 h, 32 ug/ml
  log reduction at 32 µg/mL: 2.2
A549: Lung carcinoma
  IC50: 18.8 µg/mL (≈ 70.2 µM)
[9]
  IC50: 4.9 µg/mL (≈ 18.3 µM)
[10]; 10 ug/ml
  viability: 86%
[10]; 32 ug/ml
  viability: 68%
[11]
  IC50: 0.63 µg/mL (≈ 2.35 µM)

## OCC1CC(n2cc(Br)c3c(Cl)ncnc32)C1CO (stereo not drawn) [Example 67C]
A549: Lung carcinoma
  IC50: 18.4 µg/mL (≈ 53.1 µM)
[9]
  IC50: 16.4 µg/mL (≈ 47.3 µM)
[1]
  TI (Therapeutic Index, MTC/ID50): 2.9
  VR (Virus Rating): 1.2
  EC50: 11.1 µg/mL (≈ 32 µM)
[2]; HSV-1 (E-377) experiment
  MCC: 32 µg/mL
[2]; HSV-2 (MS) experiment
  MCC: 32 µg/mL
[11]
  IC50: 4.3 µg/mL (≈ 12.4 µM)
[3]
  TI (Therapeutic Index, MTC/ID50): 2.1
  VR (Virus Rating): 0.9
  EC50: 14.9 µg/mL (≈ 43 µM)

## Nc1ncnc2c1c(Br)cn2C1CC(CO)C1CO (stereo not drawn) [Example 67F, 4-Amino-9-bromo-7-(2',3'-bis(hydroxymethyl)cyclobutyl)-7H-pyrrolo[2,3-d]pyrimidine]
A549: Lung carcinoma
  IC50: 3.1 µg/mL (≈ 9.47 µM)
[9]
  IC50: 5.2 µg/mL (≈ 15.9 µM)
[11]
  IC50: 5.9 µg/mL (≈ 18 µM)
